Test results reported in patent US20110039879A1, “METHODS FOR INCREASING WHITE BLOOD CELLS” (FibroGen ,Inc., priority 2007, published 2011).

Tests used:
Format in all cases: in vivo, Swiss-Webster mice
[1] = test system: total white blood cell (WBC); assay: Total white blood cells by complete blood count on day 8, dosing day 1, 3, 5; conditions: mice, oral gavage, measured on day 8
[2] = test system: total white blood cell (WBC); assay: as above; conditions: Mus musculus, 192 h, mice, oral gavage, measured on day 8, read-out: Total WBC % Increase Over Control; for change in vivo at 200 mg/kg: 200 mg/kg on day 1, day 3 and day 5; for change in vivo at 100 mg/kg: 100 mg/kg on day 1, day 3 and day 5; for change in vivo at 20 mg/kg: 20 mg/kg on day 1, day 3 and day 5
Protocol: (§1) To examine the effect of compounds and methods of the present invention on increasing white blood cells, the following studies were performed. In one series of experiments, male Swiss-Webster mice were administered various compounds of the present invention via oral gavage using a ball-tipped gavage needle. […] Animals were dosed once daily for 3 or 4 days. Six hours after the final dosing, 200 μl blood samples were collected and total white blood cell, neutrophil, and lymphocyte levels were measured by complete blood count (CBC) using a CellDyn cell analyzer (Abbott Laboratories).
(§2) In another series of experiments, male Swiss-Webster mice were administered various compounds (see Table 7 and Table 8) of the present invention via oral gavage using a ball-tipped gavage needle. […] Total WBC, neutrophil, lymphocyte, and monocyte levels were measured in mice as described above on day 8 following administration of compound on day 1, day 3, and day 5.

monocytes = assay: Monocytes by complete blood count on day 8, dosing day 1, 3, 5; conditions: mice, oral gavage, 6 mg/kg on day 1, day 3 and day 5, measured on day 8
lymphocytes = assay: Lymphocytes by complete blood count on day 8, dosing day 1, 3, 5; conditions: mice, oral gavage, 6 mg/kg on day 1, day 3 and day 5, measured on day 8; for change in vivo at 6 mg/kg: Mus musculus, Lymphocyte, 192 h, read-out: Lymphocytes % Increase Over Control
Protocol: as §1, §2

neutrophils = assay: Neutrophils by complete blood count on day 8, dosing day 1, 3, 5; conditions: mice, oral gavage, 6 mg/kg on day 1, day 3 and day 5, measured on day 8; for change in vivo at 6 mg/kg: Mus musculus, Neutrophil, 192 h, read-out: Neutrophils % Increase Over Control
[3] = 200 mg/kg on day 1, day 3 and day 5
[4] = Mus musculus, 192 h, 6 mg/kg on day 1, day 3 and day 5, read-out: Total WBC % Increase Over Control
[5] = 6 mg/kg on day 1, day 3 and day 5
[6] = 100 mg/kg on day 1, day 3 and day 5
[7] = 20 mg/kg on day 1, day 3 and day 5
[8] = 60 mg/kg on day 1, day 3 and day 5

COc1ccc(Cn2c(Cl)c(Cl)c3c(O)c(C(=O)NCC(=O)O)nc(C#N)c32)cc1 [Compound AK, {[2,3-Dichloro-7-cyano-4-hydroxy-1-(4-methoxy-benzyl)-1H-pyrrolo[2,3-c]pyridine-5-carbonyl]-amino}-acetic acid]
Total WBC [1, 3]: 16.8 10^3 cells/μl | change in vivo at 200 mg/kg [2]: 105%

COc1cccc(Oc2ccc3c(O)c(C(=O)NCC(=O)O)nc(C#N)c3c2)c1 [Compound BE, {[1-Cyano-4-hydroxy-7-(3-methoxy-phenoxy)-isoquinoline-3-carbonyl]-amino}-acetic acid]
change in vivo at 6 mg/kg (monocytes; Mus musculus, Monocyte, 192 h, read-out: Monocytes % Increase Over Control): 71% | Monocytes (monocytes): 0.3 10^3 cells/μl | change in vivo at 6 mg/kg (lymphocytes): 40% | Lymphocytes (lymphocytes): 8.1 10^3 cells/μl | change in vivo at 6 mg/kg [1, 4]: 39% | Total WBC [1, 5]: 9.6 10^3 cells/μl | change in vivo at 6 mg/kg (neutrophils): 30% | Neutrophils (neutrophils): 1.0 10^3 cells/μl

N#Cc1nc(C(=O)NCC(=O)O)c(O)c2ccn(Cc3ccccc3)c12 [Compound AR, [(1-Benzyl-7-cyano-4-hydroxy-1H-pyrrolo[2,3-c]pyridine-5-carbonyl)-amino]-acetic acid]
Total WBC [1, 6]: 9.5 10^3 cells/μl | change in vivo at 100 mg/kg [2]: 71%

CC(C)CCn1cc(Cl)c2c(O)c(C(=O)NCC(=O)O)nc(C#N)c21 [Compound AO, {[3-Chloro-7-cyano-4-hydroxy-1-(3-methyl-butyl)-1H-pyrrolo[2,3-c]pyridine-5-carbonyl]-amino}-acetic acid]
Total WBC [1, 6]: 10.5 10^3 cells/μl | change in vivo at 100 mg/kg [2]: 47%

N#Cc1nc(C(=O)NCC(=O)O)c(O)c2cccc(Oc3ccc(F)cc3)c12 [Compound AF, {[1-Cyano-8-(4-fluoro-phenoxy)-4-hydroxy-isoquinoline-3-carbonyl]-amino}-acetic acid]
Total WBC [1, 3]: 8.2 10^3 cells/μl | change in vivo at 200 mg/kg [2]: 35%

N#Cc1nc(C(=O)NCC(=O)O)c(O)c2c(Cl)c(Cl)n(Cc3ccc4ccccc4c3)c12 [Compound AP, [(2,3-Dichloro-7-cyano-4-hydroxy-1-naphthalen-2-ylmethyl-1H-pyrrolo[2,3-c]pyridine-5-carbonyl)-amino]-acetic acid]
Total WBC [1, 6]: 10.8 10^3 cells/μl | change in vivo at 100 mg/kg [2]: 88%

CC(C)Oc1ccc(Cn2c(Cl)c(Cl)c3c(O)c(C(=O)NCC(=O)O)nc(C#N)c32)cc1 [Compound AX, {[2,3-Dichloro-7-cyano-4-hydroxy-1-(4-isopropoxy-benzyl)-1H-pyrrolo[2,3-c]pyridine-5-carbonyl]-amino}-acetic acid]
Total WBC [1, 6]: 12.8 10^3 cells/μl | change in vivo at 100 mg/kg [2]: 81%

O=C(O)CNC(=O)c1ncc2cc(Oc3ccc(F)c(Cl)c3)ccc2c1O [Compound W, {[7-(3-Chloro-4-fluoro-phenoxy)-4-hydroxy-isoquinoline-3-carbonyl]-amino}-acetic acid]
Total WBC [1, 3]: 8.4 10^3 cells/μl | change in vivo at 200 mg/kg [2]: 80%

O=C(O)CNC(=O)c1ncc2cc(Oc3ccc(F)cc3)ccc2c1O [Compound U, {[7-(4-Fluoro-phenoxy)-4-hydroxy-isoquinoline-3-carbonyl]-amino}-acetic acid]
change in vivo at 6 mg/kg [1, 4]: 6% | Total WBC [1, 5]: 8.3 10^3 cells/μl

COc1ccc(Cn2cc(Br)c3c(O)c(C(=O)NCC(=O)O)nc(C#N)c32)cc1 [Compound AJ, {[3-Bromo-7-cyano-4-hydroxy-1-(4-methoxy-benzyl)-1H-pyrrolo[2,3-c]pyridine-5-carbonyl]-amino}-acetic acid]
Total WBC [1, 3]: 21.5 10^3 cells/μl | change in vivo at 200 mg/kg [2]: 237%

N#Cc1nc(C(=O)NCC(=O)O)c(O)c2cc(C(F)(F)F)n(Cc3ccccc3F)c12 [Compound AQ, {[7-Cyano-1-(2-fluoro-benzyl)-4-hydroxy-2-trifluoromethyl-1H-pyrrolo[2,3-c]pyridine-5-carbonyl]-amino}-acetic acid]
Total WBC [1, 7]: 9.6 10^3 cells/μl | change in vivo at 20 mg/kg [2]: 56%

N#Cc1nc(C(=O)NCC(=O)O)c(O)c2c(Cl)cn(Cc3ccccc3F)c12 [Compound AN, {[3-Chloro-7-cyano-1-(2-fluoro-benzyl)-4-hydroxy-1H-pyrrolo[2,3-c]pyridine-5-carbonyl]-amino}-acetic acid]
Total WBC [1, 3]: 23.2 10^3 cells/μl | change in vivo at 200 mg/kg [2]: 179%

O=C(O)CNC(=O)c1ncc2c(Oc3ccccc3)cccc2c1O [Compound AB, [(4-Hydroxy-8-phenoxy-isoquinoline-3-carbonyl)-amino]-acetic acid]
Monocytes (monocytes): 0.2 10^3 cells/μl | change in vivo at 6 mg/kg (lymphocytes): 42% | Lymphocytes (lymphocytes): 6.8 10^3 cells/μl | change in vivo at 6 mg/kg [1, 4]: 78% | Total WBC [1, 5]: 9.8 10^3 cells/μl | change in vivo at 6 mg/kg (neutrophils): 398% | Neutrophils (neutrophils): 2.8 10^3 cells/μl

COc1ccc(Cn2cc(Cl)c3c(O)c(C(=O)NCC(=O)O)nc(C#N)c32)cc1 [Compound AM, {[3-Chloro-7-cyano-4-hydroxy-1-(4-methoxy-benzyl)-1H-pyrrolo[2,3-c]pyridine-5-carbonyl]-amino}-acetic acid]
Total WBC [1, 3]: 23.3 10^3 cells/μl | change in vivo at 200 mg/kg [2]: 264%

N#Cc1nc(C(=O)NCC(=O)O)c(O)c2sccc12 [Compound AA, [(4-Cyano-7-hydroxy-thieno[3,2-c]pyridine-6-carbonyl)-amino]-acetic acid]
change in vivo at 2 mg/kg ([1]; Mus musculus, 192 h, 2 mg/kg on day 1, day 3 and day 5, read-out: Total WBC % Increase Over Control): 20% | Total WBC ([1]; 2 mg/kg on day 1, day 3 and day 5): 7.1 10^3 cells/μl

CC(C)Oc1ccc(Cn2cc(Cl)c3c(O)c(C(=O)NCC(=O)O)nc(C#N)c32)cc1 [Compound BC, {[3-Chloro-7-cyano-4-hydroxy-1-(4-isopropoxy-benzyl)-1H-pyrrolo[2,3-c]pyridine-5-carbonyl]-amino}-acetic acid]
Total WBC [1, 6]: 15.9 10^3 cells/μl | change in vivo at 100 mg/kg [2]: 148%

N#Cc1nc(C(=O)NCC(=O)O)c(O)c2c(Oc3cccc(Cl)c3)cccc12 [Compound BB, {[5-(3-Chloro-phenoxy)-1-cyano-4-hydroxy-isoquinoline-3-carbonyl]-amino}-acetic acid]
Total WBC [1, 3]: 20.1 10^3 cells/μl | change in vivo at 200 mg/kg [2]: 227%

CC(C)Oc1ccc(Cn2c(Cl)c(Cl)c3c(O)c(C(=O)N[C@@H](C)C(=O)O)nc(C#N)c32)cc1 [Compound BD, (S)-2-{[2,3-Dichloro-7-cyano-4-hydroxy-1-(4-isopropoxy-benzyl)-1H-pyrrolo[2,3-c]pyridine-5-carbonyl]-amino}-propionic acid]
Total WBC [1, 3]: 14.1 10^3 cells/μl | change in vivo at 200 mg/kg [2]: 93%

N#Cc1nc(C(=O)NCC(=O)O)c(O)c2cc(Oc3ccccc3)ccc12 [Compound AG, [(1-Cyano-4-hydroxy-6-phenoxy-isoquinoline-3-carbonyl)-amino]-acetic acid]
Total WBC [1, 7]: 7.6 10^3 cells/μl | change in vivo at 20 mg/kg [2]: 25%

N#Cc1nc(C(=O)NCC(=O)O)c(O)c2c(Cl)c(Cl)n(Cc3ccc(-c4ccccc4)cc3)c12 [Compound AV, [(1-Biphenyl-4-ylmethyl-2,3-dichloro-7-cyano-4-hydroxy-1H-pyrrolo[2,3-c]pyridine-5-carbonyl)-amino]-acetic acid]
Total WBC [1, 6]: 15.2 10^3 cells/μl | change in vivo at 100 mg/kg [2]: 137%

CC(C)Oc1ccc(CN2C=CC3C(O)=C(C(=O)NCC(=O)O)N=C(C#N)C32)cc1 (stereo not drawn) [Compound AZ, {[7-Cyano-4-hydroxy-1-(4-isopropoxy-benzyl)-3a,7a-dihydro-1H-pyrrolo[2,3-c]pyridine-5-carbonyl]-amino}-acetic acid]
Total WBC [1, 8]: 11.6 10^3 cells/μl | change in vivo at 60 mg/kg [2, 8]: 79%

N#Cc1nc(C(=O)NCC(=O)O)c(O)c2cccc(Oc3ccccc3)c12 [Compound AD, [(1-Cyano-4-hydroxy-8-phenoxy-isoquinoline-3-carbonyl)-amino]-acetic acid]
Total WBC [1, 3]: 7.6 10^3 cells/μl | change in vivo at 200 mg/kg [2]: 10%

N#Cc1nc(C(=O)NCC(=O)O)c(O)c2c(Oc3ccccc3)cccc12 [Compound AH, [(1-Cyano-4-hydroxy-5-phenoxy-isoquinoline-3-carbonyl)-amino]-acetic acid]
Total WBC [1, 3]: 9.4 10^3 cells/μl | change in vivo at 200 mg/kg [2]: 123%
